Source: PubChem BioAssay (NCI)
Several values for one entry are separate records, joined by “and”; a condition that tells them apart may be missing. Identical values can stand only once.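 1) Cells in 96-well plates. 2) Compound, 48 h, 5 concentrations. 3) Linear interpolation between surrounding doses. 4) Unreached endpoint = highest concentration. GI50: concentration for 50% inhibition of growth. TGI denotes the concentration required for complete inhibition of growth.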

Assays:
Assay in all cases: inhibition of tumour cell growth, NCI panel, 48 h
BT-549 breast = test system: BT-549 breast
CCRF-CEM leukemia = test system: CCRF-CEM leukemia
HOP-62 NSCLC = test system: HOP-62 NSCLC
HT29 colon = test system: HT29 colon
MOLT-4 leukemia = test system: MOLT-4 leukemia
OVCAR-3 ovarian = test system: OVCAR-3 ovarian
SK-MEL-2 melanoma = test system: SK-MEL-2 melanoma
SK-MEL-28 melanoma = test system: SK-MEL-28 melanoma
SNB-75 CNS = test system: SNB-75 CNS
UACC-62 melanoma = test system: UACC-62 melanoma

Row | Compound | GI50 (BT-549 breast) [µM] | TGI (BT-549 breast) [µM] | GI50 (CCRF-CEM leukemia) | TGI (CCRF-CEM leukemia) [µM] | GI50 (HOP-62 NSCLC) [µM] | TGI (HOP-62 NSCLC) [µM] | GI50 (HT29 colon) | TGI (HT29 colon) [µM] | GI50 (MOLT-4 leukemia) [µM] | TGI (MOLT-4 leukemia) [µM] | GI50 (OVCAR-3 ovarian) [µM] | TGI (OVCAR-3 ovarian) [µM] | GI50 (SK-MEL-2 melanoma) [µM] | TGI (SK-MEL-2 melanoma) [µM] | GI50 (SK-MEL-28 melanoma) [µM] | TGI (SK-MEL-28 melanoma) [µM] | GI50 (SNB-75 CNS) [µM] | TGI (SNB-75 CNS) [µM] | GI50 (UACC-62 melanoma) [µM] | TGI (UACC-62 melanoma) [µM]
1 | COc1cc([C@@H]2C[C@H]2c2cc(SC)n[nH]2)cc(OC)c1OC | 16.2 | 42 | 19.4 µM | > 100 | 5.75 | 28.8 | 26.9 µM | > 100 | 20.3 | > 100 | 13.2 | 30.5 | 25.6 | 67.2 | 23.5 | > 100 | 26.4 | > 100 | 14 | 43.6
2 | CCOc1cccc(-c2nc(N)nc(Nc3ccccc3SSc3ccccc3Nc3nc(N)nc(-c4cccc(OCC)c4)n3)n2)c1 | 4.97 | > 100 | 2.2 µM | > 100 | 1.57 | 4.46 | 55.8 µM | > 100 | 2.61 | > 100 | 5.37 | > 100 | 6.12 | > 100 | 10.7 | > 100 | > 100 | > 100 | 2.28 | 5.29
3 | CCCCCCCCCCCCCCCCC(=O)O.CCCCCCCCCCCCCCCCCC(=O)O.CCCCCCCCCCCCCCCCCC(=O)O.CCCCCCCCCCCCCCCCCC(=O)O.CCCCCCCCCCCCCCCCCC(=O)O.CO[CH-]OC12COC1CC(O)C1(C)C(O)C(OC(C)O)C3=C(C)C(OC(=O)C(O)C([NH-])c4ccccc4)CC(O)(C(OC(=O)c4ccccc4)C21)C3(C)C.[Cu+].[Zn].[Zn].[Zn].[Zn].[Zn] (stereo unspecified) | 0.00947 | 3.95 | 0.0095 µM | > 17.7 | 0.0131 | > 20.4 | < 0.0025 µM | > 25 | 0.0104 | > 18.5 | 0.00747 | 0.388 | < 0.0118 | 11.2 | 4.68 | 23.7 | < 0.0025 | 0.0211 | 0.0118 | 5.47
4 | CCCCCCCCn1ccc2cc(NC(=O)Cn3cc(CN4CCCCC4)nn3)ccc21 | 10.2 | 23.2 | 2.01 µM | 7.74 | 1.89 | 3.75 | 2.02 µM | 4.28 | 2.59 | 7.23 | 3.42 | 13.3 | 1.9 | 3.68 | 1.75 | 3.29 | 1.51 | 2.96 | 1.81 | 3.51
5 | CCN(CC)C1CCC(Nc2c(C(C)=O)cnc3ccc(-c4ccc(O)c(Cl)c4)cc23)CC1 (stereo unspecified) | 1.91 | 5.89 | 0.385 µM | 6.26 | 2.14 | > 45.5 | 1.64 µM | 3.51 | 0.253 | 1.18 | 0.38 | 3.15 | 4.15 | 28.2 | 1.83 | 16.2 | 0.152 | 5.33 | 3.47 | 25.4
6 | COc1cc2c(cc1OC)C1Cc3cc(OC)c(OC)cc3C(C2)N1C | – | > 75 | 27.4 µM and > 100 µM | > 100 | – | > 100 | 23.5 µM and 54 µM | > 100 | – | > 100 | – | > 100 | – | > 100 | – | > 100 | – | > 100 | – | > 75
7 | CC(=O)Oc1ccc(/C(=C(\C)c2ccc(Cl)cc2)c2ccc(OCCN3CCCCC3)cc2)cc1 | 1.83 | 3.58 | 2.2 µM | 6.67 | 2.05 | 4.23 | 1.19 µM | 3.24 | 1.73 | 5.36 | 1.65 | 3.25 | 1.85 | 3.56 | 2.01 | 3.89 | 1.55 | 3.77 | 1.86 | 3.73
8 | NCOC(=O)Cc1ccc(Br)cc1 | – | > 100 | – | > 100 | – | > 100 | – | > 100 | – | > 100 | – | > 100 | – | > 100 | – | > 100 | – | > 100 | – | > 100
9 | CC1OC(OC2C(OC3CCC4(C)C(CCC5(C)C4CC=C4C6CC(C)(C)CCC6(C(=O)O)CCC45C)C3(C)CO)OCC(O)C2O)C(O)C(O)C1O (stereo unspecified) | – | 35 | – | 18.3 | – | > 100 | – | 44.7 | – | 45.8 | – | 81.9 | – | 33.3 | – | 39.8 | – | 30.7 | – | 26.1
10 | Oc1cc2ccccc2c(-c2c(O)c(O)cc3ccccc23)c1O | 4.17 | 27.8 | 0.554 µM | > 27.7 | 1.03 | 8.39 | 3.95 µM | 25.3 | 0.897 | 18.7 | 0.825 | 17.9 | 2.74 | 15.5 | 3.37 | 20.7 | 2.23 | 28.1 | 1.26 | 4.23
11 | COc1cc(C(=O)N/N=C/c2ccc(N(C)C)cc2)cc(OC)c1OC | 0.696 | > 26.7 | 0.344 µM | > 100 | 0.598 | > 100 | 0.347 µM | – | 0.729 | 19.4 | 0.259 | 0.605 | 1.15 | > 81.3 | 0.622 | > 100 | 0.152 | > 100 | 0.417 | > 100
12 | Cn1c(NCC(O)CN2CCCC2)cc(=O)n(C)c1=O (stereo unspecified) | > 100 | > 100 | > 100 µM | > 100 | > 100 | > 100 | > 100 µM | > 100 | > 100 | > 100 | > 100 | > 100 | > 100 | > 100 | > 100 | > 100 | 76.2 | > 100 | > 100 | > 100
13 | O=C1c2cccc(NCCN=Cc3ccccc3O)c2C(=O)c2c(NCCN=Cc3ccccc3O)cccc21 | 2.77 | 9.37 | 1.02 µM | 4.24 | 0.663 | 3.89 | 0.298 µM | 1.93 | 0.353 | 1.56 | 0.514 | 2.09 | 1.2 | 3.67 | 1.54 | 3.37 | 0.163 | 2.65 | 1.59 | 4.86
14 | COc1cc(-c2cc(-c3cc(OC)c(OC)c(OC)c3)nc3nc(N)[nH]c(=O)c23)ccc1Oc1ccnc2cc(Cl)ccc12 | 2.91 | 20.8 | 2.66 µM | > 100 | 2.35 | 16.7 | 10.5 µM | 25.4 | 2.78 | > 100 | 0.736 | 13.6 | 2.25 | 7.68 | 4.75 | > 100 | 1.9 | > 100 | 3.55 | 25.2
15 | O=C(Nc1ccc(/C=C/c2ccc(NC(=O)c3cc(S(=O)(=O)O)c4cccnc4c3O)cc2S(=O)(=O)O)c(S(=O)(=O)O)c1)c1cc(S(=O)(=O)O)c2cccnc2c1O | 21.8 | > 79.8 | 3.15 µM | > 29.1 | 10.9 | > 66.1 | 32.1 µM | > 100 | 1.69 | > 28.7 | > 56.9 | > 72.2 | > 53.8 | > 69.7 | 25.5 | > 62.7 | 8.18 | 48.7 | 2.5 | 37.6
16 | O=c1ssc(Cl)c1Cl | – | > 10 | – | 5.25 | – | > 10 | – | > 10 | – | 4.9 | – | > 10 | – | > 10 | – | > 10 | – | > 10 | – | > 10
